Experiments:
Details in all cases: incubation time: 72 h
CAL-51 [1] = assay: normalised response (% of control), CellTiter-Glo; higher = more viable cells (100 = DMSO, 0 = benzethonium chloride kill control)
Outline: (§1)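 Every value is a normalised signal taken at one concentration of a dilution series. Compound was placed in 384-well plates at 5 concentrations in 10-fold steps over a compound-specific 10,000-fold range, and 20 µl of breast cancer cell suspension was seeded onto it. After 72 h, CellTox Green fluorescence (485/520 nm) was measured first and CellTiter-Glo luminescence second, following 10 min at room temperature. Each plate was scaled to 0.1 % DMSO (100) and a positive kill control (0).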

MDA-MB-468 [2] = assay: as above
Outline: as §1

HDQ-P1 [3] = assay: as above
Outline: as §1

MFM-223 [4] = assay: as above
Outline: as §1

BT-549 [5] = assay: as above
Outline: as §1

CAL-120 [6] = assay: as above
Outline: as §1

Hs578T [7] = assay: as above
Outline: as §1

SK-BR-3 [8] = assay: as above
Outline: as §1

CAL-85-1 [9] = assay: as above
Outline: as §1

HCC1143 [10] = assay: as above
Outline: as §1

MDA-MB-453 [11] = assay: as above
Outline: as §1

DU-4475 [12] = assay: as above
Outline: as §1

HCC1599 [13] = assay: as above
Outline: as §1

MDA-MB-231 [14] = assay: as above
Outline: as §1

HCC1937 [15] = assay: as above
Outline: as §1

MDA-MB-436 [16] = assay: as above
Outline: as §1

BT-474 [17] = assay: as above
Outline: as §1

CAL-148 [18] = assay: as above
Outline: as §1

MCF-10A = assay: as above
Outline: as §1

CAL-51 [19] = assay: normalised viability (% of control), CellTiter-Blue; higher = more viable cells (100 = DMSO, 0 = benzethonium chloride kill control)
Method: (§2)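 DSRT, CellTiter-Blue viability, 72 h incubation. Signal is normalised to DMSO and benzethonium chloride controls. Value is the normalised response at dose 1.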

MDA-MB-468 [20] = assay: as above
Method: as §2

HDQ-P1 [21] = assay: as above
Method: as §2

MFM-223 [22] = assay: as above
Method: as §2

BT-549 [23] = assay: as above
Method: as §2

CAL-120 [24] = assay: as above
Method: as §2

Hs578T [25] = assay: as above
Method: as §2

SK-BR-3 [26] = assay: as above
Method: as §2

CAL-85-1 [27] = assay: as above
Method: as §2

HCC1143 [28] = assay: as above
Method: as §2

MDA-MB-453 [29] = assay: as above
Method: as §2

DU-4475 [30] = assay: as above
Method: as §2

HCC1599 [31] = assay: as above
Method: as §2

MDA-MB-231 [32] = assay: as above
Method: as §2

HCC1937 [33] = assay: as above
Method: as §2

MDA-MB-436 [34] = assay: as above
Method: as §2

BT-474 [35] = assay: as above
Method: as §2

CAL-148 [36] = assay: as above
Method: as §2

SMILES	normalised response (CAL-51 [1])	normalised response (MDA-MB-468 [2])	normalised response (HDQ-P1 [3])	normalised response (MFM-223 [4])	normalised response (BT-549 [5])	normalised response (CAL-120 [6])	normalised response (Hs578T [7])	normalised response (SK-BR-3 [8])	normalised response (CAL-85-1 [9])	normalised response (HCC1143 [10])	normalised response (MDA-MB-453 [11])	normalised response (DU-4475 [12])	normalised response (HCC1599 [13])	normalised response (MDA-MB-231 [14])	normalised response (HCC1937 [15])	normalised response (MDA-MB-436 [16])	normalised response (BT-474 [17])	normalised response (CAL-148 [18])	normalised response (MCF-10A)	normalised viability (CAL-51 [19])	normalised viability (MDA-MB-468 [20])	normalised viability (HDQ-P1 [21])	normalised viability (MFM-223 [22])	normalised viability (BT-549 [23])	normalised viability (CAL-120 [24])	normalised viability (Hs578T [25])	normalised viability (SK-BR-3 [26])	normalised viability (CAL-85-1 [27])	normalised viability (HCC1143 [28])	normalised viability (MDA-MB-453 [29])	normalised viability (DU-4475 [30])	normalised viability (HCC1599 [31])	normalised viability (MDA-MB-231 [32])	normalised viability (HCC1937 [33])	normalised viability (MDA-MB-436 [34])	normalised viability (BT-474 [35])	normalised viability (CAL-148 [36])
O=P1(NCCCl)OCCCN1CCCl (stereo not drawn) [Ifosfamide] (1 nM)	78.5%	95.3%	98.1%	87.2%	102%	92.2%	98.8%	93.3%	93.9%	89.7%	90.3%	93.7%	94.2%	97%	94.8%	97.8%	94.2%	99.4%	92.1%	110%	124%	119%	93.8%	122%	89.7%	55.3%	98.3%	84.3%	88.9%	107%	116%	109%	122%	87.6%	95.2%	86.7%	118%
Oc1nc(-c2ccc(C(F)(F)F)cc2)nc2c1CSCC2 [XAV-939] (1 nM)	97.6%	99.1%	98.9%	102%	95.8%	97.1%	97.1%	99.2%	104%	100%	97.6%	104%	95.8%	101%	97.2%	107%	99.7%	92.4%	101%	102%	104%	97.3%	107%	99.4%	97.7%	89.6%	99.3%	93.8%	97.6%	106%	119%	141%	100%	84%	119%	84.9%	101%
Cn1c(CCCC(=O)O)nc2cc(N(CCCl)CCCl)ccc21 [Bendamustine] (1 nM)	75.8%	108%	102%	106%	101%	99.5%	99.8%	117%	105%	104%	127%	108%	99.5%	106%	103%	97.5%	107%	116%	103%	102%	110%	65.9%	94.8%	106%	90.5%	104%	93.2%	90.2%	112%	109%	111%	107%	116%	103%	109%	108%	108%
Clc1ccc(Nc2nnc(Cc3ccncc3)c3ccccc23)cc1 [Vatalanib] (1 nM)	99.8%	114%	103%	108%	93.2%	97.3%	101%	111%	102%	97.1%	103%	104%	105%	99.1%	101%	98.9%	101%	102%	110%	99.4%	98.8%	91%	106%	100%	84.3%	99.8%	93.2%	94.3%	89.5%	99.8%	97.9%	95.2%	87.7%	78.3%	125%	86.8%	90.5%

From the supplement of paper PMC4862054
